Test results as given in the supplement of paper PMC8149375.

How the values were obtained:
Conditions in all cases: treatment: drug + dasatinib (fixed dose, not stated); 5 days
769-P [1] = test: GI50 of drug in presence of dasatinib; higher = less potent
Protocol: (§1)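 Primary HTS combination arm: 8 RCC cell lines treated with 8 doses (up to 10 uM) of each library drug plus a fixed dose of dasatinib (dose not stated) for 5 days; viability read by CellTiter-Glo and normalised to DMSO. GI50 was fitted with XLfit, AUC is the area under the dose-response curve, and minimum viability is the lowest fraction of DMSO viability across doses.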

786-O [2] = test: as above
Protocol: as §1

A498 [3] = test: as above
Protocol: as §1

ACHN [4] = test: as above
Protocol: as §1

CAKI-1 [5] = test: as above
Protocol: as §1

SN12C [6] = test: as above
Protocol: as §1

TK-10 [7] = test: as above
Protocol: as §1

UO-31 [8] = test: as above
Protocol: as §1

769-P [9] = test: minimum viability across doses, drug + dasatinib, relative to DMSO (fraction); higher = less growth inhibition
Protocol: as §1

786-O [10] = test: as above
Protocol: as §1

A498 [11] = test: as above
Protocol: as §1

ACHN [12] = test: as above
Protocol: as §1

CAKI-1 [13] = test: as above
Protocol: as §1

SN12C [14] = test: as above
Protocol: as §1

TK-10 [15] = test: as above
Protocol: as §1

UO-31 [16] = test: as above
Protocol: as §1

769-P [17] = test: AUC of dose-response viability curve, drug + dasatinib, normalised to DMSO (arbitrary (AUC of normalised viability)); higher = less growth inhibition
Protocol: as §1

786-O [18] = test: as above
Protocol: as §1

A498 [19] = test: as above
Protocol: as §1

ACHN [20] = test: as above
Protocol: as §1

CAKI-1 [21] = test: as above
Protocol: as §1

SN12C [22] = test: as above
Protocol: as §1

TK-10 [23] = test: as above
Protocol: as §1

UO-31 [24] = test: as above
Protocol: as §1

SMILES	GI50 of drug (769-P [1])	GI50 of drug (786-O [2])	GI50 of drug (A498 [3])	GI50 of drug (ACHN [4])	GI50 of drug (CAKI-1 [5])	GI50 of drug (SN12C [6])	GI50 of drug (TK-10 [7])	GI50 of drug (UO-31 [8])	minimum viability across doses (769-P [9])	minimum viability across doses (786-O [10])	minimum viability across doses (A498 [11])	minimum viability across doses (ACHN [12])	minimum viability across doses (CAKI-1 [13])	minimum viability across doses (SN12C [14])	minimum viability across doses (TK-10 [15])	minimum viability across doses (UO-31 [16])	AUC of dose-response viability curve (769-P [17])	AUC of dose-response viability curve (786-O [18])	AUC of dose-response viability curve (A498 [19])	AUC of dose-response viability curve (ACHN [20])	AUC of dose-response viability curve (CAKI-1 [21])	AUC of dose-response viability curve (SN12C [22])	AUC of dose-response viability curve (TK-10 [23])	AUC of dose-response viability curve (UO-31 [24])
COc1cc2ncnc(Nc3ccc(F)c(Cl)c3)c2cc1NC(=O)/C=C/CN1CCCCC1 + Cc1nc(Nc2ncc(C(=O)Nc3c(C)cccc3Cl)s2)cc(N2CCN(CCO)CC2)n1 [dasatinib]	25.5 nM	< 3 nM	2350 nM	< 3 nM	485 nM	567 nM	53.6 nM	1160 nM	0.00783	0.0063	0.0146	0.00207	0.00568	0.00664	0.00803	0.0145	1.25	1.02	2.74	0.908	1.63	1.81	1.46	2.31
C[C@@H](Oc1cc(-c2cnn(C3CCNCC3)c2)cnc1N)c1c(Cl)ccc(F)c1Cl + Cc1nc(Nc2ncc(C(=O)Nc3c(C)cccc3Cl)s2)cc(N2CCN(CCO)CC2)n1 [dasatinib]	2260 nM	798 nM	3260 nM	475 nM	837 nM	748 nM	3550 nM	539 nM	0.0606	0.00845	0.284	0.0735	0.0151	0.175	0.149	0.0115	2.43	2.22	2.68	1.81	1.91	1.98	2.65	2.11
CC(C)(C)c1nc(-c2cccc(NS(=O)(=O)c3c(F)cccc3F)c2F)c(-c2ccnc(N)n2)s1 + Cc1nc(Nc2ncc(C(=O)Nc3c(C)cccc3Cl)s2)cc(N2CCN(CCO)CC2)n1 [dasatinib]	> 10000 nM	30.8 nM	> 10000 nM	134 nM	121 nM	> 10000 nM	563 nM	> 10000 nM	0.55	0.184	1.01	0.113	0.0739	0.684	0.3	0.58	2.36	1.49	4.08	1.51	1.48	2.61	2	3.99
C#Cc1cccc(Nc2ncnc3cc(OCCOC)c(OCCO)cc23)c1 + Cc1nc(Nc2ncc(C(=O)Nc3c(C)cccc3Cl)s2)cc(N2CCN(CCO)CC2)n1 [dasatinib]	760 nM	> 10000 nM	> 10000 nM	3.94 nM	1010 nM	> 10000 nM	1300 nM	9830 nM	0.301	0.489	0.973	0.108	0.125	0.415	0.323	0.439	2.11	2.72	3.63	1.13	2.09	2.43	2.1	4.6
CC1(COc2ccc3c(c2)ncn3-c2ccc3cccc(N4CCC(N)CC4)c3n2)COC1 + Cc1nc(Nc2ncc(C(=O)Nc3c(C)cccc3Cl)s2)cc(N2CCN(CCO)CC2)n1 [dasatinib]	1710 nM	102 nM	2540 nM	1920 nM	928 nM	1280 nM	3330 nM	2230 nM	0.222	0.00575	0.0198	0.0128	0.192	0.0349	0.181	0.0108	1.8	1.64	2.83	1.96	1.9	2.14	2.42	2.77
CCc1cnn2c(NCc3ccc[n+]([O-])c3)cc(N3CCCC[C@H]3CCO)nc12 + Cc1nc(Nc2ncc(C(=O)Nc3c(C)cccc3Cl)s2)cc(N2CCN(CCO)CC2)n1 [dasatinib]	16.7 nM	3.6 nM	11.9 nM	3.94 nM	7.08 nM	11.5 nM	14.1 nM	15.1 nM	0.0174	0.00583	0.00891	0.00901	0.0412	0.0087	0.169	0.0088	0.787	0.357	0.592	0.506	0.562	0.562	1.11	0.771
Cc1nc(Nc2ncc(C(=O)Nc3c(C)cccc3Cl)s2)cc(N2CCN(CCO)CC2)n1 + Cc1nc(Nc2ncc(C(=O)Nc3c(C)cccc3Cl)s2)cc(N2CCN(CCO)CC2)n1 [dasatinib]	38.2 nM	158 nM	8460 nM	26.3 nM	23.6 nM	2300 nM	18.8 nM	65.6 nM	0.0465	0.0726	0.413	0.0702	0.0256	0.422	0.0619	0.0492	1.22	1.71	2.62	1.18	1.03	2.21	1.04	1.44
